# Data as given in patent publication US20250295657A1, “Methods and Compositions for Treatment of Inflammation and Inflammatory Conditions” (University of Pittsburgh - Of the Commonwealth System of …, priority 2022, published 2025).
# Legend:
# [1] = test system: chronically hypoxic mouse model; details: 10 mg/kg orotracheal, four weeks hypoxia
# VCAM1 = VCAM1 expression by RT-qPCR and immunoblot in PAECs; format: cell-based, human
# Method: (§1) RNA extraction and quantitative polymerase chain reaction: Cells were lysed in QIAzol Lysis Reagent (Qiagen; 79306), and RNA was extracted using the Rnaeasy Kit (Qiagen; 74004). Complementary DNA was synthesized using the High-Capacity cDNA Reverse Transcription Kit (ThermoFisher; 4368813). Quantitative real-time PCR (RT-qPCR) was performed on an Applied Biosystems QuantStudio 6 Flex Real-Time PCR instrument.
# (§2) Target gene expression was normalized to a housekeeping gene (i.e., ACTB) and fold change was calculated using the […] method. TaqMan™ Universal PCR Master Mix (ThermoFisher; 4305719) was used with TaqMan primers (Table 1). PowerUp™ SYBR^TM Green Master Mix (ThermoFisher; A25742) was used with custom designed primers (Table 2).
# Protein extraction and immunoblotting: Cells were rinsed two times with PBS before collection in RIPA buffer containing protease and phosphatase inhibitors. Protein concentration was determined using the Pierce™ BCA Protein Assay Kit (ThermoFisher; 23225). Protein lysates were separated using 4-15% Mini-PROTEAN® TGX™ Precast Protein Gels (Bio-Rad Laboratories; 4561086) and subsequently transferred onto a PVDF membrane. Membranes were blocked with 5% BSA in Tris-buffered saline with 0.1% Tween 20 (TBST) for one hour at room temperature. Primary antibodies were subsequently added and incubated at 4° C. overnight (Table 3). The next day blots were washed three times for 10 minutes each with TBST. Blots were then incubated with the appropriate secondary antibody coupled to HRP for one hour at room temperature. After another round of TBST washing, blots were visualized using Pierce ECL reagents and images were captured using the BioRad ChemiDoc XRS+.
# Application of oxysterols and bile acids: Oxysterols and bile acids were applied to human PAECs in 0.1% FBS, cell-specific media. 25-hydroxycholesterol and 7HOCA were dissolved in 100% ethanol and applied to cells at a concentration of 25 μM or 50 μM for 24 hours, respectively.
# human PAECs = assay: Leukocyte and monocyte adhesion to an endothelial monolayer; format: cell-based
# Method: Leukocyte and monocyte adhesion assays: Immune activation of the endothelium was assessed by measuring the adhesion of immune cells to an endothelial monolayer. Human PAECs were cultured until a complete monolayer was formed. Immune cells were stained with either CellTrace™ Blue or CFSE (ThermoFisher; Blue, C34568; CFSE, C34554) per the manufacturer's protocol. Between […] stained immune cells were added to each well of a six-well plate and allowed to incubate for 24 hours. Wells were then rinsed two times with PBS and subsequently fixed with 4% PFA for 15 minutes at room temperature. After fixation, the cells were rinsed once more with PBS. Fluorescent images were acquired at 4× magnification for each well. Immune cell number per image was quantified using Fiji. For the leukocyte adhesion assay, HuT 78 cutaneous T lymphocytes were used (ATCC). For the monocyte adhesion assay, THP-1 peripheral blood monocytes were used (ATCC).
# CH25H = CH25H expression via RT-qPCR in PAECs under IL-1β; format: cell-based, human
# Method: as §1, §2
# [2] = target: ATP6V1B2-NCOA7 interactions (Homo sapiens, UniProt Q8NI08); assay: Proximity ligation assay of ATP6V1B2-NCOA7 interactions in human PAECs; format: cell-based; details: 958ami versus DMSO
# Method: Proximity ligation assay: Direct interaction of NCOA7 with the V-ATPase subunit ATP6V1B2 was assessed using the Duolink® Proximity Ligation Assay (Millipore Sigma; DU092102). Human PAECs were plated in a Nunc™ Lab-Tek™ II Chamber Slide™ System (20,000 per well; ThermoFisher; 154453) and then fixed with 4% paraformaldehyde for 15 minutes. After permeabilization and blocking per the manufacturer's protocol, wells were incubated with either mouse anti-NCOA7 antibody (Santa Cruz Biotechnology; sc-393427), rabbit anti-ATP6V1B2 antibody (abcam; ab73404), both antibodies, or neither antibodies overnight at 4° C. (Table 3). Cells were then incubated with the PLUS and MINUS probes for one hour, ligated for 30 minutes, and amplified for 100 minutes at 37° C. Slides were then mounted with ProLong™ Gold Antifade Mountant with DAPI (ThermoFisher; P36935). Images were acquired on a Nikon A1 Confocal Microscope at the Center for Biologic Imaging at the University of Pittsburgh.
# [3] = test system: monocrotaline PAH rat model; details: 7.5 mg/kg i.p. for 10 days
# [4] = test system: BA.2 spike pseudotyped virus; format: cell-based
# coronavirus = details: mouse, in vivo
# Klebsiella pneumoniae = assay: Mice infected with Klebsiella pneumoniae, acute lung injury; format: in vivo, mouse; details: 5 mg/kg IP daily for 3 days
# Method: Mice were infected with Klebsiella pneumoniae. […] (FIG. 23 (A, B)) Representative images were prepared of lung tissue sections stained with H&E after 48 hours of intratracheal infection with K. pneumoniae in mice treated with DMSO compared to 958 (5 mg/kg IP dosing daily for 3 days).
# NCOA7 [5] = target: T1, NCOA7 (Homo sapiens, UniProt Q8NI08); assay: Initial experimental validation of top scoring virtual screening compounds; details: preliminary data
# T1 sequence (Q8NI08 1-942): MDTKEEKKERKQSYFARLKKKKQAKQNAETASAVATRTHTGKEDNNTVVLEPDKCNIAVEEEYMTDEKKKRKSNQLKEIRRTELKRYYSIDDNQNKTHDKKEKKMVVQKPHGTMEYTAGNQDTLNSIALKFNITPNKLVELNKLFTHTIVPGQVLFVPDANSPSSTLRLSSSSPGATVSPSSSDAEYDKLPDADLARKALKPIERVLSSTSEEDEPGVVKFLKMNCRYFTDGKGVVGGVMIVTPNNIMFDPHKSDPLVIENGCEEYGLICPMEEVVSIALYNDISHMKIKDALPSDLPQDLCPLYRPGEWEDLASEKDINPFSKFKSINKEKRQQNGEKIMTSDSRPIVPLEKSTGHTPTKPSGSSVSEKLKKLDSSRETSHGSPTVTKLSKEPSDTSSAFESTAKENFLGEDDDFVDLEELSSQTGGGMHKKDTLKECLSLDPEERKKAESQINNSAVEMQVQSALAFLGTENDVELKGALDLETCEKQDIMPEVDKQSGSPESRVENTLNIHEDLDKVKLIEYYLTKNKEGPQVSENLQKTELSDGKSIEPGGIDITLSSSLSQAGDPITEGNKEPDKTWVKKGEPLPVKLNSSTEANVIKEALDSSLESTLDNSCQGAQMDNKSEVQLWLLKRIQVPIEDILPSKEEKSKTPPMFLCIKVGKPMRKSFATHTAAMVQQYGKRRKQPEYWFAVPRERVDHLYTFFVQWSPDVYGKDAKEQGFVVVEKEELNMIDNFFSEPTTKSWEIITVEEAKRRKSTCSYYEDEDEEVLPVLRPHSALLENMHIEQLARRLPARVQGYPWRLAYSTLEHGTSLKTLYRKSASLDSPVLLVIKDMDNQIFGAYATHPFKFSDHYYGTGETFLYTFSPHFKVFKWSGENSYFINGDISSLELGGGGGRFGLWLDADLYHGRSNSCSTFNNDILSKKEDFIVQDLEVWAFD
# Source text: Pharmacophore modeling: Using Pharmmaker, we identified the residues involved in high affinity interactions with each molecular probe type. The residue-probe interactions were subsequently rank-ordered based on their frequency of occurrence at the druggable hot spots in multiple runs. […] The pharmacophore model contained a hydrogen bond donor and a hydrophobic feature at the isopropylamine site and hydrophobic and aromatic rings at the two benzene sites. The pharmacophore model was then screened against the ZINC and MolPort libraries using Pharmit. The MolPort library contains 67,033,884 conformers corresponding to 4,848,718 compounds, and the ZINC library contains 122,276,899 conformers of 13,127,550 compounds. Among top-scoring compounds, MolPort-004-267-958 was selected for further refinement after initial experimental validation.
# NCOA7 [6] = assay: IL-1β-mediated upregulation of NCOA7 in ECs; format: cell-based; details: inhibition of STAT1/2 signaling
# [7] = 25 μM for 24 hours versus ethanol
# ATP6V1B2-NCOA7 interactions, sequence (P21281 whole entry partner, one chain of several): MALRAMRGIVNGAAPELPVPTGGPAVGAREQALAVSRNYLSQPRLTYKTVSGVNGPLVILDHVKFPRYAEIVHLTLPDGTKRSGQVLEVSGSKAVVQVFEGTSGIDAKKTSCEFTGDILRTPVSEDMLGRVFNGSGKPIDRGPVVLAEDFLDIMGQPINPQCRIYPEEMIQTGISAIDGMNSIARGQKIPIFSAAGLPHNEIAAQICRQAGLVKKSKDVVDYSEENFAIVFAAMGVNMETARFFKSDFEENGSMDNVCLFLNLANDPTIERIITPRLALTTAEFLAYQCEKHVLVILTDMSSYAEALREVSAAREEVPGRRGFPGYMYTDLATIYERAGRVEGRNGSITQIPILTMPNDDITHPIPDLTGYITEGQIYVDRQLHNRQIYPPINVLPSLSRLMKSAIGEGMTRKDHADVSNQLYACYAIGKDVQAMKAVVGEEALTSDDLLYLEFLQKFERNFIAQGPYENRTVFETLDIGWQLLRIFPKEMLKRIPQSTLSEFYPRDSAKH
smiles,measurement,setting,value
"CC(CCC[C@@H](C)[C@H]1CC[C@H]2[C@@H]3[C@H](O)CC4=CC(=O)CC[C@]4(C)[C@H]3CC[C@]12C)C(=O)O (stereo partly drawn) [7HOCA, 7α-hydroxy-3-oxo-4-cholestenoic acid]",CD11b+ monocyte infiltration into the vascular bed,[1],enhanced
same,RVSP,[1],increased
same,VCAM1 expression in pulmonary vessels,[1],enhanced
same,pulmonary arteriolar remodeling,[1],increased
same,VCAM1 expression,VCAM1; 7HOCA 50 μM for 24 hours versus ethanol control,significantly upregulated
same,adhesion of leukocytes and monocytes to a PAEC monolayer,human PAECs; 7HOCA-treated PAECs versus ethanol control,promoting adhesion
"C[C@H](CCCC(C)(C)O)[C@H]1CC[C@H]2[C@@H]3CC=C4C[C@@H](O)CC[C@]4(C)[C@H]3CC[C@]12C [25HC, 25-hydroxycholesterol]",VCAM1 expression,VCAM1; [7],similarly upregulated VCAM1
same,immune cell adhesion to a PAEC monolayer,human PAECs; [7],enhanced immune cell adhesion
O=C(NCc1cc(=O)oc2cc(O)c(O)cc12)c1nn(-c2ccccc2)c(=O)c2ccccc12 [958ami],CH25H induction,CH25H,prevented induction of CH25H
same,number of amplifications per cell (ATP6V1B2-NCOA7 interactions),[2],significantly induced
same,EC immunoactivation as noted by VCAM1 expression,VCAM1; 958ami 20 μM for 24 hours versus DMSO,decreased EC immunoactivation
same,EC immunoactivation as noted by immune cell adhesion to a monolayer,human PAECs; 958ami-treated PAECs versus DMSO,decreased EC immunoactivation
same,CD11b+ monocyte infiltration at the pulmonary vessel,[3],attenuation
same,CH25H expression in pulmonary vessels,[3],decreased CH25H expression
same,RVSP,[3],significant reduction
same,VCAM1 expression at the endothelium,[3],attenuation
same,pulmonary vessel muscularization,[3],decreased muscularization
same,right ventricular hypertrophy (Fulton's Index),[3],significant reduction
same,hepatic or renal toxicity,[3]; versus vehicle,neither had appreciable hepatic or renal toxicity
same,BA.2 spike pseudotyped virus infection,[4],decrease
O=C(OCc1cc(=O)oc2cc(O)c(O)cc12)c1nn(-c2ccccc2)c(=O)c2ccccc12 [compound 958],mortality,coronavirus,significantly improved mortality
same,"proinflammatory markers (IL-1α, IL-1β, IFN-γ, VCAM1, and ICAM1) in lung tissue",coronavirus,attenuation
same,viral load in lung tissue,coronavirus,decreased viral load
same,"inflammation by ELISA on lung homogenate of IL-1β, TNF-α, and IL-6",Klebsiella pneumoniae,decreased inflammation
same,acute lung injury,Klebsiella pneumoniae; H&E after 48 hours of intratracheal infection,improvement of acute lung injury
same,effect on NCOA7 relative to the other predicted compounds,NCOA7 [5],activator of NCOA7
same,BA.2 spike pseudotyped virus infection,[4],decrease
N#CCNC(=O)c1ccc(-c2ccnc(Nc3ccc(N4CCOCC4)cc3)n2)cc1 [momelotinib],IL-1β-mediated upregulation of NCOA7,NCOA7 [6],abrogated
